Experiments:
human recombinant G9a [1] = target: T1, human recombinant G9a (Homo sapiens, UniProt Q96KQ7); experiment: G9a inhibition, peptide-based AlphaLISA assay; type: biochemical; settings: for fold reduction of G9a inhibitory activity compared to 12a: relative to 12a, from Table 1 IC50; for Hill slope of the concentration–response inhibition curve of G9a: AlphaLISA, four-parameter fit
T1 sequence (Q96KQ7 1-1210): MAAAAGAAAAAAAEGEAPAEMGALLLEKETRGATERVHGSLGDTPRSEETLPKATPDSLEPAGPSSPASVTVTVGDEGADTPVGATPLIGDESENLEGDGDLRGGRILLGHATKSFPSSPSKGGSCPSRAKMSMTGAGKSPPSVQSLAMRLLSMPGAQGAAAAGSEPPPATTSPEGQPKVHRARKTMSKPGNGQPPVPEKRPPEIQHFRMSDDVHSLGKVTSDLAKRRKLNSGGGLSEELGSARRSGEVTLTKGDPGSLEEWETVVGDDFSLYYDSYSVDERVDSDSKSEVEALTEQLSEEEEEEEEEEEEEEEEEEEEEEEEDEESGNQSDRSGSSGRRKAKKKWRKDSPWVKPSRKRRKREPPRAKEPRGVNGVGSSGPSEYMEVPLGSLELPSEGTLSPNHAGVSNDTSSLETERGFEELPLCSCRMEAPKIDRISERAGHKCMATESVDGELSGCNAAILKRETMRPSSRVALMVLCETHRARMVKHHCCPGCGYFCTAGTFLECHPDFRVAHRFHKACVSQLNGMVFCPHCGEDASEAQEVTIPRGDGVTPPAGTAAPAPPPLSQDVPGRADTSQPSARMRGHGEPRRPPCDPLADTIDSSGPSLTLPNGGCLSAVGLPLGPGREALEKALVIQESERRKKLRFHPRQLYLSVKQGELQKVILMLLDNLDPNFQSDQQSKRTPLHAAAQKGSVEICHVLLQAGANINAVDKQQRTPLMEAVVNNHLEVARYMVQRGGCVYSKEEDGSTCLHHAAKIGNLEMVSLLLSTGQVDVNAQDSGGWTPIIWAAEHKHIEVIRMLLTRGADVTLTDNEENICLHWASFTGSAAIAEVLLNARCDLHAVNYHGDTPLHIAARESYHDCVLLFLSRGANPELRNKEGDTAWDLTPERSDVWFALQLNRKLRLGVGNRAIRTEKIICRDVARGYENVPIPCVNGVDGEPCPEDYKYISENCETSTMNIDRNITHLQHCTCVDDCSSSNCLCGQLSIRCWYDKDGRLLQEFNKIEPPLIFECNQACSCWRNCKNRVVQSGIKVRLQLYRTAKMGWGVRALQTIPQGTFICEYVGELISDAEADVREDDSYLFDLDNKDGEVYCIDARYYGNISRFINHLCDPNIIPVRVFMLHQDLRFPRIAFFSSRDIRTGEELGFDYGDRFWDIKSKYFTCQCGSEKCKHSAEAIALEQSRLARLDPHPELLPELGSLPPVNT

[2] = Parallel artificial membrane permeability assay; type: in vitro ADME; settings: PAMPA, pH 7.4
[3] = system: other lysine and arginine methyltransferases; settings: up to a 10 μM concentration; cited from earlier work
in vitro = settings: PAMPA, pH 7.4
G9a [4] = target: T2, G9a (Homo sapiens, UniProt Q96KQ7); settings: read-out: Morrison Ki, G9a; cited from earlier work
T2 sequence (Q96KQ7 913-1193 limits assumed): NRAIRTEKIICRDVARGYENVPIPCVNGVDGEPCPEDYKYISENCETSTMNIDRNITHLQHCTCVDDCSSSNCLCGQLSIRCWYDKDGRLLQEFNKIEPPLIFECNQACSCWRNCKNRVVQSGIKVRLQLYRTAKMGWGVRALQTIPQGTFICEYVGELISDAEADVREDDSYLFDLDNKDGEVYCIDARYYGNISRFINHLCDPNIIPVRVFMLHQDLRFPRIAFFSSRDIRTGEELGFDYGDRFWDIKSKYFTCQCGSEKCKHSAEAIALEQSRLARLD

G9a [5] = target: T2, G9a; settings: read-out: G9a IC50 (ECSD assay); ECSD assays; cited from earlier work
human recombinant KDM4A = target: T3, human recombinant KDM4A (Homo sapiens, UniProt O75164); experiment: KDM4A/JMJD2A inhibition, AlphaLISA assay; type: biochemical; settings: tested at 10 and 25 μM
T3 sequence (O75164 1-1064): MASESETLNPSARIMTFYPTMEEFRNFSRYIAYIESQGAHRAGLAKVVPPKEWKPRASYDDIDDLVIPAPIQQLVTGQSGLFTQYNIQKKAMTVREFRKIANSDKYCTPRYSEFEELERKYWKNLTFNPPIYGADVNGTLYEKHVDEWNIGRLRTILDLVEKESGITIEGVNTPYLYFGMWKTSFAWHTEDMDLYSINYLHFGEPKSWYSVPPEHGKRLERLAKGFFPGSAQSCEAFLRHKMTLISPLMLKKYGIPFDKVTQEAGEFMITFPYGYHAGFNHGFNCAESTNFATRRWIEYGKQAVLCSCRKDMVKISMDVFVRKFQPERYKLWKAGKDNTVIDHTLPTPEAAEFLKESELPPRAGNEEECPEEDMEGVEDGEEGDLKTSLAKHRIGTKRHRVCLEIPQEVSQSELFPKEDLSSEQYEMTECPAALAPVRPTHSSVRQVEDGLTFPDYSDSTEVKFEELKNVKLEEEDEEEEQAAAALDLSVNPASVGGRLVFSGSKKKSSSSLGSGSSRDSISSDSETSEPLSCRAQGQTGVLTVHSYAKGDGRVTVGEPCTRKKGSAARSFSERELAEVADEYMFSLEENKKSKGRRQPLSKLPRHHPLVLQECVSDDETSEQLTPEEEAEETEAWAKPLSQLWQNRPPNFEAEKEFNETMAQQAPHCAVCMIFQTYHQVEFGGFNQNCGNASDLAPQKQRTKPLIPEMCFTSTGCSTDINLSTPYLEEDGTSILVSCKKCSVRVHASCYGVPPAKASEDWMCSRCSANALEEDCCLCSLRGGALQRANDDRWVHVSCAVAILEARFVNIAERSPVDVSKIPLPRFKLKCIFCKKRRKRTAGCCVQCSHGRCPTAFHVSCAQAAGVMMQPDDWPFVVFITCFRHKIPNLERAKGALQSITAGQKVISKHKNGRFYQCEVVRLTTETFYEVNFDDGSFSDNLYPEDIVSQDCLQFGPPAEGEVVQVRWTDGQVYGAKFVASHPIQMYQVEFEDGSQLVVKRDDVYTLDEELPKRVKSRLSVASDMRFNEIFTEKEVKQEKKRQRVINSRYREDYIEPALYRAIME

human recombinant PRMT1 = human recombinant PRMT1 (Homo sapiens, UniProt Q99873); experiment: PRMT1 inhibition, AlphaLISA assay; type: biochemical; settings: tested at 10 and 25 μM
human recombinant PRMT1, sequence (Q99873 whole entry): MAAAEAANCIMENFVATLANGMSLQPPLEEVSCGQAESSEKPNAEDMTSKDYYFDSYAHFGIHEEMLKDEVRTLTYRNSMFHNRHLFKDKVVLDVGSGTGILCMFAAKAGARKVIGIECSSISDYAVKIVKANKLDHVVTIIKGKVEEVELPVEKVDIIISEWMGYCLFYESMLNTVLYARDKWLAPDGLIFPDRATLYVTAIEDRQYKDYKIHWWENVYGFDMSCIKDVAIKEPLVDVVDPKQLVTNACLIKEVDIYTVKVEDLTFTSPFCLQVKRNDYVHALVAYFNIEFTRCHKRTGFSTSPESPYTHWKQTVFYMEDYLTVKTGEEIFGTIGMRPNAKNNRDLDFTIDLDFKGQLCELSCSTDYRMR

human recombinant PRMT3 = human recombinant PRMT3 (Homo sapiens, UniProt O60678); experiment: PRMT3 inhibition, AlphaLISA assay; type: biochemical; settings: tested at 10 and 25 μM
human recombinant PRMT3, sequence (O60678 whole entry): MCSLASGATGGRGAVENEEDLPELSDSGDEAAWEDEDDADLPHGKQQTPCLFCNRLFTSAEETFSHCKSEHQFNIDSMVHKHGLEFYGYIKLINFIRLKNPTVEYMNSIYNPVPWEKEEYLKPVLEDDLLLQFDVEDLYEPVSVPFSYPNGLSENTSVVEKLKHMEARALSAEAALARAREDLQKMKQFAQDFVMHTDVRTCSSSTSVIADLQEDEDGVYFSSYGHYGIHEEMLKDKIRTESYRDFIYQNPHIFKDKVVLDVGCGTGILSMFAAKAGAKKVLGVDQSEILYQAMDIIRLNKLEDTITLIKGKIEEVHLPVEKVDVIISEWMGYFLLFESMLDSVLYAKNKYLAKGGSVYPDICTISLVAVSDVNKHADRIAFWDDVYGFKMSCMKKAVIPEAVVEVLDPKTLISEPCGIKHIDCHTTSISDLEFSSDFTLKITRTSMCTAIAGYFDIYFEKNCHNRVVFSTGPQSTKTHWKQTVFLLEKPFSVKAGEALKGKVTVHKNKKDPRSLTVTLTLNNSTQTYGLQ

human recombinant p300 = human recombinant p300 (Homo sapiens, UniProt Q09472); experiment: KAT3B/p300 inhibition, AlphaLISA assay; type: biochemical; settings: tested at 10 and 25 μM
human recombinant p300, sequence (Q09472 whole entry): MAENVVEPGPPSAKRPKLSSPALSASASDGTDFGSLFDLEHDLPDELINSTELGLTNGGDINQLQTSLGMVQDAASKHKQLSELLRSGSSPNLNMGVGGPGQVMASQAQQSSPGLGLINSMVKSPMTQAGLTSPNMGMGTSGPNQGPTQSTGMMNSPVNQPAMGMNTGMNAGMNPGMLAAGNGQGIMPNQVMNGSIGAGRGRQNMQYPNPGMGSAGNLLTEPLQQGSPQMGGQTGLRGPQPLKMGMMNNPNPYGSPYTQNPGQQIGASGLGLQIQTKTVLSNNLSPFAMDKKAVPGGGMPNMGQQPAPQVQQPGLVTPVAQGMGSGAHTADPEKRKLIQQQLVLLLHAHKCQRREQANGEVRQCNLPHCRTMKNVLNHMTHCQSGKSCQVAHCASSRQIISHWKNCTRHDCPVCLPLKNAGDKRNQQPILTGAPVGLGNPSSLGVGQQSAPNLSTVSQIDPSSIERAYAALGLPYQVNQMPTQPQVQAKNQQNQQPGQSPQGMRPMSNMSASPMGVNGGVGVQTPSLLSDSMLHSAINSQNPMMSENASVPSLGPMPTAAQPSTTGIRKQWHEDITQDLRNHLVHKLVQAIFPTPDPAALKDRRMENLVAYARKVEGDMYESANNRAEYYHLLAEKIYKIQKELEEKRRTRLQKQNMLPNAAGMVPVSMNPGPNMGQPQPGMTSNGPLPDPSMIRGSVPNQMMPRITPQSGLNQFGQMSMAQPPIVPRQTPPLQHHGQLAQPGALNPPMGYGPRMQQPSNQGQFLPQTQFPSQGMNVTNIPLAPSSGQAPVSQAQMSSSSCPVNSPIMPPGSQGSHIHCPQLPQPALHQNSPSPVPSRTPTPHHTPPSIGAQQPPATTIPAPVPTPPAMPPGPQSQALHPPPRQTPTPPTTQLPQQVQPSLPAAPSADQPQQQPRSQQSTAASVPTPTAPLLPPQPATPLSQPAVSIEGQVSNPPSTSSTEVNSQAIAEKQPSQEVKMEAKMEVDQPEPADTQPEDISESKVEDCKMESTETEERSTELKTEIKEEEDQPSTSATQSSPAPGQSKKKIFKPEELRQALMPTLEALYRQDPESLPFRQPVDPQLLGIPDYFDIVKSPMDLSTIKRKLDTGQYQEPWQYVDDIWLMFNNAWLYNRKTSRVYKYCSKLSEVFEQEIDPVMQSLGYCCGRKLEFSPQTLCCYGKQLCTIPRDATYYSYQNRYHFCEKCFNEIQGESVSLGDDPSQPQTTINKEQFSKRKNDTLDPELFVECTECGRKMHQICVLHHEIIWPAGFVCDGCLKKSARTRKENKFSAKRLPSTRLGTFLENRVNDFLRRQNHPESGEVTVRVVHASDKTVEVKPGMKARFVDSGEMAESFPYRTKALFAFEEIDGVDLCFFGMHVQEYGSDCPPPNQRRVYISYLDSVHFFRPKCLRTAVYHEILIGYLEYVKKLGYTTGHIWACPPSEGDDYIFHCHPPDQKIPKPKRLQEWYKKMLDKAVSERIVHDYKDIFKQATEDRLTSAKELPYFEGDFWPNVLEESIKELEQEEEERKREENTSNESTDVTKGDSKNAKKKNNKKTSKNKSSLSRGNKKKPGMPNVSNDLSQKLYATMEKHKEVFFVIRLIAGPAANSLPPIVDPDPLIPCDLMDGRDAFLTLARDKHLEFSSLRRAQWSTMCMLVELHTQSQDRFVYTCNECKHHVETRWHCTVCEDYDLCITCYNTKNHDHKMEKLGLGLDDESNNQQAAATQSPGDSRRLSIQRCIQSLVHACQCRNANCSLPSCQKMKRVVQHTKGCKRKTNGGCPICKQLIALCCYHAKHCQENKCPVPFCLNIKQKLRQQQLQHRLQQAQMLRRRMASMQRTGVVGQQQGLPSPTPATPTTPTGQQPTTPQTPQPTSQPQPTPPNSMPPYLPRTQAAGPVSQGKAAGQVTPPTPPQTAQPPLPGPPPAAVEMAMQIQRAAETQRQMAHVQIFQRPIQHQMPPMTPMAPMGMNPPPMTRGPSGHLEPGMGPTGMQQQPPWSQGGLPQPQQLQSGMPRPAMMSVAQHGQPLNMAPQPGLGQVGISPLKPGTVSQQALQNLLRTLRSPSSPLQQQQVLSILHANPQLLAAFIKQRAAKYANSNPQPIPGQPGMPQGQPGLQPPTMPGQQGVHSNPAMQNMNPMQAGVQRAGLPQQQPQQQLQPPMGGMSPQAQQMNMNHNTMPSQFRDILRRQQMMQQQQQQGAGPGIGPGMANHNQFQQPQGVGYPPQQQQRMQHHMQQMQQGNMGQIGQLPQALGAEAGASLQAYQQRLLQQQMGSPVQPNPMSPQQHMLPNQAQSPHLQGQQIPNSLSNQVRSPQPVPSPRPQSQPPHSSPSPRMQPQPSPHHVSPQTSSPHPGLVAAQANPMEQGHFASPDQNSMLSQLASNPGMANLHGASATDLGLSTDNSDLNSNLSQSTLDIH

human DNMT3a = human DNMT3a (Homo sapiens, UniProt Q9Y6K1); experiment: HotSpot DNMT activity assay; type: biochemical; settings: lambda DNA substrate
human DNMT3a, sequence (Q9Y6K1 2-912 limits assumed): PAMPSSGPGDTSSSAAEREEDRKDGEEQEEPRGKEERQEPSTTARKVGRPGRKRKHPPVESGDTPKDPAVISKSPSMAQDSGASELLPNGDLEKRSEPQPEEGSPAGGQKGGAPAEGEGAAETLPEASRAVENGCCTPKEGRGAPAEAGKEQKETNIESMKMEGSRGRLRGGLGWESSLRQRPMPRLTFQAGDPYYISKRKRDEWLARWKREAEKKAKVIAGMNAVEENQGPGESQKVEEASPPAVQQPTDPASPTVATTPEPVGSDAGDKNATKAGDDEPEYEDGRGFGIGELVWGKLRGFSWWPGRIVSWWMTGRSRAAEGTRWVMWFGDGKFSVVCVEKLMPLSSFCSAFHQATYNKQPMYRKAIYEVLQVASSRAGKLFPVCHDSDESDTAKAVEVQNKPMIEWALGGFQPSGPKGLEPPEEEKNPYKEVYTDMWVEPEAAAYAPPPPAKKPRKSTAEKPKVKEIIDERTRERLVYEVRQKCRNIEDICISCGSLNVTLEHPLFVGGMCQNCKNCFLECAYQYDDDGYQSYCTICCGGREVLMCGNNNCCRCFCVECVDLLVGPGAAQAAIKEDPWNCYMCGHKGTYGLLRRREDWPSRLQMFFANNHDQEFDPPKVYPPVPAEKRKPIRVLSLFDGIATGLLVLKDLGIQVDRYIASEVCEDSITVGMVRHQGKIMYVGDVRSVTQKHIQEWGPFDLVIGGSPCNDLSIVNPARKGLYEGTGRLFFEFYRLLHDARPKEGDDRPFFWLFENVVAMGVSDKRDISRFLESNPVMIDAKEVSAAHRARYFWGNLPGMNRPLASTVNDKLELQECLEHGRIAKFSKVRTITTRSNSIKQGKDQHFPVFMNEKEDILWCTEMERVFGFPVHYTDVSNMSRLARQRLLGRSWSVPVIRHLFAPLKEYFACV

[6] = target: full-length human recombinant DNMT3b (Homo sapiens, UniProt Q9UBC3); experiment: HotSpot DNMT activity assay; type: biochemical; settings: lambda DNA substrate
G9a [7] = target: T2, G9a; experiment: Surface plasmon resonance; type: binding
human recombinant G9a [8] = target: T1, human recombinant G9a; experiment: Mechanism of action kinetics, AlphaLISA G9a assay, Lineweaver-Burk plots; type: biochemical; settings: fixed H3 peptide 100 nM, varying SAM
[9] = Chemical stability in PBS, HPLC analysis; type: physicochemical; settings: exposure to PBS over 72 h
MCF-7 cells = experiment: MTT cell viability assay, MCF-7; type: cell-based, human; settings: 0.05–50 μM; 24, 48, 72 h
MDA-MB-231 cells = experiment: MTT cell viability assay, MDA-MB-231; type: cell-based, human; settings: up to 5 μM, even after 72 h, vs vehicle
U-343 cells = experiment: MTT cell viability assay, U-343; type: cell-based, human; settings: up to 5 μM, even after 72 h, vs vehicle
[10] = system: H3K9me2 levels in MCF-7 cells; experiment: Western blot of H3K9me2 in histone extracts, MCF-7; type: cell-based, human; settings: 0.5 and 5 μM, 48 and 72 h
[11] = system: H3K9me2 levels in MDA-MB-231 cells; experiment: Western blot of H3K9me2 in histone extracts, MDA-MB-231; type: cell-based, human; settings: 0.5 and 5 μM, 48 and 72 h
[12] = system: H3K9me2 levels in U-343 cells; experiment: Western blot of H3K9me2 in histone extracts, U-343; type: cell-based, human; settings: 0.5 and 5 μM, 48 and 72 h
GLP over G9a = settings: biochemical assays; cited from earlier work
[13] = system: lysine N-methyltransferase SUV39H1(H320R); settings: up to a 10 μM concentration; cited from earlier work
[14] = system: protein arginine methyltransferase 1 (PRMT1); settings: up to a 10 μM concentration; cited from earlier work

COc1cc2c(cc1OCCCN1CCCC1)NC(c1ccccc1)CN=C2NC1CCN(C(C)C)CC1 (centres unmarked) [13b, N-(1-Isopropylpiperidin-4-yl)-7-methoxy-2-phenyl-8-(3-(pyrrolidin-1-yl)propoxy)-2,3-dihydro-1H-benzo[e][1,4]-diazepin-5-amine]
fold reduction of G9a inhibitory activity compared to 12a (human recombinant G9a [1]): 100 fold

COc1cc2c(cc1OCCCN1CCCC1)NC(C1CCCCC1)CN=C2NC1CCN(C(C)C)CC1 (centres unmarked) [13a, 2-Cydohexyl-N-(1-isopropylpiperidin-4-yl)-7-methoxy-8-(3-(pyrrolidin-1-yl)propoxy)-2,3-dihydro-1H-benzo[e][1,4]-diazepin-5-amine]
fold reduction of G9a inhibitory activity compared to 12a (human recombinant G9a [1]): approximately 50 fold

COc1cc2c(NC3CCN(C(C)C)CC3)nc(C3CCCCC3)nc2cc1OCCCN1CCCC1 [compound 7]
Hill slope of the concentration–response inhibition curve of G9a (human recombinant G9a [1]): −1.3 | Papp at 24 h, 0.2 mM [2]: 0.049 ×10⁻⁶ cm/s | activity against other lysine and arginine methyltransferases [3]: inactive | Papp at 24 h, 0.2 mM (in vitro): 0.019 ×10⁻⁶ cm/s

COc1cc2c(NC3CCN(C)CC3)nc(N3CCCN(C)CC3)nc2cc1OCCOCCN(C)C [compound 5]
Ki (G9a [4]): 0.063 nM | IC50 (G9a [5]): 9 nM

COc1cc2c(cc1OCCCN1CCCC1)N=C(C1CCCCC1)CN=C2NC1CCN(C(C)C)CC1 [12a, 2-Cyclohexyl-N-(1-isopropylpiperidin-4-yl)-7-methoxy-8-(3-(pyrrolidin-1-yl)propoxy)-3H-benzo[e][1,4]diazepin-5-amine]
Hill slope of the concentration–response inhibition curve of G9a (human recombinant G9a [1]): −2.7 | JMJD2A inhibition (in words) (human recombinant KDM4A): only poorly (or not at all) inhibited | PRMT1 inhibition (in words) (human recombinant PRMT1): only poorly (or not at all) inhibited | PRMT3 inhibition (in words) (human recombinant PRMT3): only poorly (or not at all) inhibited | p300 inhibition (in words) (human recombinant p300): only poorly (or not at all) inhibited | DNMT3a inhibition (in words) (human DNMT3a): inactive | DNMT3b inhibition (in words) [6]: inactive | Kd (G9a [7]): 63800 ± 950 nM | α Ki, noncompetitive against SAM (human recombinant G9a [8]): 1.1 ± 0.2 nM | chemical stability (HPLC) [9]: did not decompose | cell toxicity (MTT), MCF-7 (MCF-7 cells): slight progressive increase of toxicity after 48 and 72 h | cell toxicity (MTT), MDA-MB-231 (MDA-MB-231 cells): did not significantly reduce the number of metabolically active MDA-MB-231 or U-343 cells | cell toxicity (MTT), U-343 (U-343 cells): did not significantly reduce the number of metabolically active MDA-MB-231 or U-343 cells | dimethylation of lysine H3K9 (H3K9me2), MCF-7 [10]: marked and both concentration- and time-dependent reduction | dimethylation of lysine H3K9 (H3K9me2), MDA-MB-231 [11]: marked and both concentration- and time-dependent reduction | dimethylation of lysine H3K9 (H3K9me2), U-343 [12]: marked and both concentration- and time-dependent reduction

COc1cc2c(cc1OCCCN1CCCC1)N=C(c1ccccc1)CN=C2NC1CCN(C(C)C)CC1 [12b, N-(1-Isopropylpiperidin-4-yl)-7-methoxy-2-phenyl-8-(3-(pyrrolidin-1-yl)propoxy)-3H-benzo[e][1,4]diazepin-5-amine]
fold reduction of G9a inhibitory activity compared to 12a (human recombinant G9a [1]): approximately 50 fold

CCCCCCNc1nc(NC2CCN(C)CC2)c2cc(OC)c(OC)cc2n1 [compound 9]
selectivity for GLP over G9a (GLP over G9a): > 140 fold

COc1cc2c(cc1OCCCN1CCCC1)N=C(C1CCCCC1)CC(NC1CCN(C(C)C)CC1)=N2 [compound 14, 4-Cyclohexyl-N-(1-isopropylpiperidin-4-yl)-8-methoxy-7-(3-(pyrrolidin-1-yl)propoxy)-3H-benzo[b][1,4]diazepin-2-amine]
fold reduction of G9a inhibitory activity compared to 12a (human recombinant G9a [1]): 130 fold

COc1cc2nc(N3CCCN(C)CC3)nc(NC3CCN(Cc4ccccc4)CC3)c2cc1OC [compound 3]
activity against SUV39H1(H320R) [13]: basically inactive | activity against PRMT1 [14]: basically inactive
